The source of these data is ChEMBL document CHEMBL4002552, “Discovery of novel piperidine-substituted indolylarylsulfones as potent HIV NNRTIs via structure-guided scaffold morphing and fragment rearrangement” (Eur J Med Chem, 2017).

The subject of data set [1] is Human immunodeficiency virus 1. In words: Antiviral activity against HIV1 expressing reverse transcriptase K103N mutant infected in human MT4 cells assessed as protection against virus-induced cytopathic effect after 5 days by MTT assay. Format: functional, cell-based. The settings on record: Human immunodeficiency virus 1, MT4, 120 h. On the technique in general: Damage to the host cells serves as the signal in cytopathic effect assays.

Data set [2] relates to Human immunodeficiency virus 1. The data set is classed as functional, cell-based. The settings on record: Human immunodeficiency virus 1, MT4, 120 h.
Data set [3] has as its system Human immunodeficiency virus 1. Format: functional, cell-based. The settings on record: Human immunodeficiency virus 1, MT4, 120 h. The source holds these as a separate data set.
The test system of data set [4] is Human immunodeficiency virus 1. Put plainly: Antiviral activity against HIV1 expressing reverse transcriptase E138K mutant infected in human MT4 cells assessed as protection against virus-induced cytopathic effect after 5 days by MTT assay. The settings on record: Human immunodeficiency virus 1, MT4, 120 h. Format: functional, cell-based.
Data set [5] has as its system Human immunodeficiency virus 1. The data set is classed as functional, cell-based. Particulars: Human immunodeficiency virus 1, MT4, 120 h. This is another data set of the same source.
The subject of data set [6] is Human immunodeficiency virus 1. Put plainly: Antiviral activity against HIV1 RES056 expressing reverse transcriptase mutant infected in human MT4 cells assessed as protection against virus-induced cytopathic effect after 5 days by MTT assay. The data set is classed as functional, cell-based. The settings on record: Human immunodeficiency virus 1, RES056, MT4, 120 h.

Data set [7] can be described thus: Cytotoxicity against human MT4 cells assessed as decrease in cell viability after 5 days by MTT assay. Format: cell-based.
For data set [8], the system named is Human immunodeficiency virus 1. In words: Potency index, ratio of nevirapine EC50 to test compound EC50 for HIV1 3B expressing wild type reverse transcriptase. The data set is classed as functional.
The subject of data set [9] is Human immunodeficiency virus 1. In words: Potency index, ratio of delavirdine EC50 to test compound EC50 for HIV1 3B expressing wild type reverse transcriptase. The data set is classed as functional.
Data set [10] concerns Human immunodeficiency virus 2. In words: Antiviral activity against HIV2 ROD infected in human MT4 cells assessed as protection against virus-induced cytopathic effect after 5 days by MTT assay. The data set is classed as functional, cell-based. The settings on record: ISOLATE ROD.
In data set [11] the test system is Human immunodeficiency virus 1. In words: Resistance ratio of EC50 for HIV1 expressing reverse transcriptase L100I mutant to EC50 for HIV1 3B expressing wild type reverse transcriptase. Format: functional.
Data set [12] concerns Human immunodeficiency virus 1. In words: Resistance ratio of EC50 for HIV1 expressing reverse transcriptase K103N mutant to EC50 for HIV1 3B expressing wild type reverse transcriptase. Format: functional.
Data set [13] is described as follows: in vitro. The settings on record: human, MT4 cells.
Description: Selectivity index, ratio of CC50 for human MT4 cells to EC50 for HIV1 3B expressing wild type reverse transcriptase
Data set [14] is described as follows: in vitro. The settings on record: human, MT4 cells. This is another data set of the same source.
Description: Selectivity index, ratio of CC50 for human MT4 cells to EC50 for HIV1 expressing reverse transcriptase L100I mutant
The nature of data set [15]: in vitro. Particulars: human, MT4 cells. This is another data set of the same source.
Description: Selectivity index, ratio of CC50 for human MT4 cells to EC50 for HIV1 expressing reverse transcriptase K103N mutant
The nature of data set [16]: in vitro. The settings on record: human, MT4 cells. The source holds these as a separate data set.
Description: Selectivity index, ratio of CC50 for human MT4 cells to EC50 for HIV1 expressing reverse transcriptase Y181C mutant
Data set [17] in a line: in vitro. Particulars: human, MT4 cells. The source holds these as a separate data set.
Description: Selectivity index, ratio of CC50 for human MT4 cells to EC50 for HIV1 expressing reverse transcriptase Y188L mutant
Data set [18] can be described thus: in vitro. Particulars: human, MT4 cells. This is another data set of the same source.
Description: Selectivity index, ratio of CC50 for human MT4 cells to EC50 for HIV1 expressing reverse transcriptase E138K mutant
Data set [19] is described as follows: in vitro. The settings on record: human, MT4 cells. The source holds these as a separate data set.
Description: Selectivity index, ratio of CC50 for human MT4 cells to EC50 for HIV1 expressing reverse transcriptase F227L/V106A double mutant
Data set [20] is described as follows: in vitro. Particulars: human, MT4 cells. The source holds these as a separate data set.
Description: Selectivity index, ratio of CC50 for human MT4 cells to EC50 for HIV1 RES056 expressing reverse transcriptase mutant
In data set [21] the test system is Human immunodeficiency virus 1. Put plainly: microbe, parasite or virus in culture. The settings on record: Human immunodeficiency virus 1, 3B, MT4, 120 h.
Description: Antiviral activity against HIV1 3B expressing wild type reverse transcriptase infected in human MT4 cells assessed as protection against virus-induced cytopathic effect after 5 days by MTT assay
Data set [22] deals with Human immunodeficiency virus 1. In words: microbe, parasite or virus in culture. Particulars: Human immunodeficiency virus 1, MT4, 120 h.
Description: Antiviral activity against HIV1 expressing reverse transcriptase L100I mutant infected in human MT4 cells assessed as protection against virus-induced cytopathic effect after 5 days by MTT assay
Data set [23] can be described thus: Inhibition of recombinant wild type HIV1 reverse transcriptase using poly (A).oligo (dT)15 as template/primer assessed as decrease in biotin-dUTP incorporation after 1 hr by ELISA. Details: species or system Human immunodeficiency virus 1. (In general: In an ELISA, binding on a coated surface is turned into a signal by an enzyme label.)

As usually defined, the EC50 is the concentration at which the effect is half-maximal. Broadly, the CC50 is the concentration at which the toxic effect on the cells reaches its halfway point. A word on the IC50: it is the concentration needed to halve the response being measured.

SMILES strings stand for the structures. Activity calls are given as the source filed them. The calls are words filed in the database; no cut-off is given here.

For the compound `Cc1cc(C)cc(S(=O)(=O)c2c(C(=O)NC3CCN(CCO)CC3)[nH]c3ccc(Br)cc23)c1`, the EC50 in [1] is 84 nM; in [2] it was 130 nM; in data set [3], greater than 6300 nM; in data set [4] it was 140 nM; in data set [5], 220 nM; in data set [6], greater than 6300 nM. Moreover, the EC50 is 6 nM in data set [21] and 17 nM in [22]. Also, the CC50 at 120 h in data set [7] is 6300 nM. In addition, the “Ratio EC50” value in data set [8] is reported as 20; in data set [9], 4; in data set [11], 2.8; in data set [12], 14. The result in data set [10] was inactive. The selectivity ratio is 1000 in the data set “in vitro [13]”; 368 in “in vitro [14]”; 74 in “in vitro [15]”; 48 in “in vitro [16]”; less than 1 in “in vitro [17]”; 46 in “in vitro [18]”. Besides, the selectivity ratio in the data set “in vitro [19]” is 28; in “in vitro [20]”, less than 1.

Consider `Cc1cc(C#N)cc(C)c1Oc1nc(Nc2ccc(C#N)cc2)nc(N)c1Br` [ETRAVIRINE], for which the half-maximal effective concentration (EC50) came to 14 nM in [2]; 15 nM in [3]; 11 nM in [4]; 34 nM in data set [6]; 9 nM in data set [22]. Moreover, the IC50 in data set [23] came to 1100 nM.

`CC(C)Nc1cccnc1N1CCN(C(=O)c2cc3cc(NS(C)(=O)=O)ccc3[nH]2)CC1` [DELAVIRDINE]: the EC50 in [1] is 2500 nM; in [2] it was 1900 nM; in data set [3] it was 550 nM; in [4], 70 nM; in data set [5] it was 2600 nM; in data set [6] it was no less than 37000 nM. The EC50 is 24 nM in [21] and 3500 nM in data set [22]. Moreover, the CC50 at 120 h in [7] is greater than 43800 nM. The selectivity ratio was determined as 1880 in “in vitro [13]”; 13 in “in vitro [14]”; 18 in “in vitro [15]”; 23 in the data set “in vitro [16]”; 81 in the data set “in vitro [17]”; 634 in the data set “in vitro [18]”. The selectivity ratio in the data set “in vitro [19]” was determined as 17.

With `Cc1cc(C)cc(S(=O)(=O)c2c(C(=O)NCC3CCN(CCO)CC3)[nH]c3ccc(Cl)cc23)c1`, the EC50 is 320 nM in [1]; 560 nM in data set [2]; greater than 6700 nM in data set [3]; 300 nM in [4]; 620 nM in data set [5]; greater than 6700 nM in data set [6]. The EC50 is 32 nM in data set [21] and 110 nM in [22]. For the same compound, in [7], the CC50 at 120 h came out at 6700 nM. For the same compound, in data set [10], the outcome was inactive. Further, the selectivity ratio in the data set “in vitro [13]” was 205; in the data set “in vitro [14]” it was 59; in the data set “in vitro [15]” it was 21; in “in vitro [16]”, 12; in the data set “in vitro [17]” it was less than 1; in “in vitro [18]”, 22. Also, the selectivity ratio is 11 in the data set “in vitro [19]” and less than 1 in the data set “in vitro [20]”.

Turning to `Cc1ccnc2c1NC(=O)c1cccnc1N2C1CC1` [NEVIRAPINE], the EC50 turned out to be 3600 nM in data set [1]; 3800 nM in data set [2]; 4400 nM in data set [3]; 160 nM in data set [4]; 3500 nM in data set [5]; 2200 nM in [6]. For the same compound, the CC50 at 120 h in data set [7] is greater than 15000 nM. In data set [23], the IC50 was 2800 nM.

For the compound `O=C1Nc2ccc(Cl)cc2[C@@](C#CC2CC2)(C(F)(F)F)O1` [EFAVIRENZ], the EC50 in data set [1] was 98 nM; in [2], 5 nM; in [3] it was 92 nM; in data set [5], 76 nM; in data set [6], 110 nM. The CC50 at 120 h in data set [7] was greater than 6300 nM.

Turning to `CCOC(=O)CCN1CCC(CNC(=O)c2[nH]c3ccc(Cl)cc3c2S(=O)(=O)c2cc(C)cc(C)c2)CC1`, in [7], the CC50 at 120 h stood at 19200 nM. Besides, the IC50 in data set [23] stood at 10100 nM.
